Experimental data reported in US20180186755A1, “LYSYL OXIDASE-LIKE 2 INHIBITORS AND USES THEREOF” (PharmAkea, Inc., priority 2015, published 2018).
Counter-ions that a name gives are not always drawn.

target: T1, human LOXL2 (Homo sapiens, UniProt Q9Y4K0); experiment: Human LOXL2 amine oxidase activity assay (Amplex Red fluorescence); format: biochemical; conditions: concentrated conditioned media from CHO cells stably expressing human LOXL2; 2 h at 37° C. preincubation; DAP substrate
T1 construct: expressed in transfected cells; 10-20x concentrated conditioned media used as the enzyme source
T1 sequence (Q9Y4K0 26-774): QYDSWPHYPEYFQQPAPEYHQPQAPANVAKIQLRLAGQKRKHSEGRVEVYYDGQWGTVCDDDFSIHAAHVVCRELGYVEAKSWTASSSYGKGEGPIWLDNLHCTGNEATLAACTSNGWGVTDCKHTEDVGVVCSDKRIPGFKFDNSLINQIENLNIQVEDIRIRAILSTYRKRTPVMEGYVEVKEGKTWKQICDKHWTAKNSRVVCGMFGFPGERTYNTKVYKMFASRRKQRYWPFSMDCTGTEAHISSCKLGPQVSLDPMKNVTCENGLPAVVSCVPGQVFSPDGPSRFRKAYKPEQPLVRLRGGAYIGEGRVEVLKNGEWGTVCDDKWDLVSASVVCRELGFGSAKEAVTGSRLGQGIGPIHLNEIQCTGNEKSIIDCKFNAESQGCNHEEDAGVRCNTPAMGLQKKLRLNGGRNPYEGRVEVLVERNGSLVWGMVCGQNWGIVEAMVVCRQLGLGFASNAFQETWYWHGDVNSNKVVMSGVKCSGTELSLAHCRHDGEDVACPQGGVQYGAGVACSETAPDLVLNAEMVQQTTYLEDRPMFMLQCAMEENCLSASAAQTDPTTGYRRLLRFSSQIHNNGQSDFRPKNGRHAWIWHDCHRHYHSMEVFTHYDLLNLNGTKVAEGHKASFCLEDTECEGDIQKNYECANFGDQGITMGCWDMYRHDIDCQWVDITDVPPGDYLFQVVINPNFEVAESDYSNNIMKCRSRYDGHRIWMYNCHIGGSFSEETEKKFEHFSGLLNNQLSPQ
Protocol: Example B-1: Human LOXL2 Amine Oxidase Activity Assay
LOXL2 amine oxidase activity is evaluated by measuring Amplex Red fluorescence using 10-20× concentrated conditioned media from CHO cells stably expressing human LOXL2.
To assay for amine oxidase activity, 10 μL of the concentrated conditioned media is incubated with 2 μL of test compound in DMSO and 73 μL Assay Buffer (50 mM Borate Buffer, pH8) for 2 h at 37° C. After the 2 h incubation, 5 ul of 10 mM 1,5-Diaminopentane (DAP) diluted in Assay Buffer and 10 μl of Amplex Red Mix (8.5 μl Assay Buffer+0.5 μl of 10 mM Amplex Red+1 μl of 500 U/ml Horseradish Peroxidase) are added and the plate mixed and immediately placed on the FlexStaion for fluorescence measurements. Fluorescence is read in kinetic mode every 2 min for 1 hour at excitation=544 and emission=590. The amine oxidase activity is calculated from the slope of the linear portion of the curve.

| IC50 [nM] | Structure (SMILES) |
| --- | --- |
| < 100 | NCc1cc(Oc2cccc(C(=O)NCc3cccnc3)c2)ncn1 [Compound 1-54, 3-((6-(Aminomethyl)pyrimidin-4-yl)oxy)-N-(pyridin-3-ylmethyl)benzamide] |
| < 100 | NCc1cc(Oc2cccc(C(=O)NCc3ccccc3)c2)ncn1 [Compound 1-56, 3-((6-(Aminomethyl)pyrimidin-4-yl)oxy)-N-benzylbenzamide] |
| < 100 | NCc1cc(Oc2cccc(C(=O)N[C@@H](CO)c3ccccc3)c2)ncn1 [Compound 1-57, (R)-3-((6-(Aminomethyl)pyrimidin-4-yl)oxy)-N-(2-hydroxy-1-phenylethyl)benzamide] |
| < 100 | NCc1cc(Oc2cccc(C(=O)N3CCN(c4ccccn4)CC3)c2)ncn1 [Compound 1-58, (3-((6-(Aminomethyl)pyrimidin-4-yl)oxy)phenyl)(4-(pyridin-2-yl)piperazin-1-yl)methanone] |
| < 100 | CC1(C)CCN(C(=O)c2cccc(Oc3cc(CN)ncn3)c2)CC1 [Compound 1-59, (3-((6-(Aminomethyl)pyrimidin-4-yl)oxy)phenyl)(4,4-dimethylpiperidin-1-yl)methanone] |
| < 100 | NCc1cc(Oc2cccc3[nH]ncc23)ncn1 [Compound 1-60, (6-((1H-Indazol-4-yl)oxy)pyrimidin-4-yl)methanamine] |
| < 100 | NCc1cc(-n2ncc3c(CO)cccc32)ncn1 [Compound 1-61, (1-(6-(Aminomethyl)pyrimidin-4-yl)-1H-indazol-4-yl)methanol] |
| < 100 | NCc1cc(Oc2cccc(C(=O)NCc3ccc(-c4ccc(F)cc4)cc3)c2)ncn1 [Compound 1-62, 3-((6-(Aminomethyl)pyrimidin-4-yl)oxy)-N-((4′-fluoro-[1,1′-biphenyl]-4-yl)methyl)benzamide] |
| < 100 | NCc1cc(Oc2cccc(C(=O)NCc3ccc4ccccc4n3)c2)ncn1 [Compound 1-63, 3-((6-(Aminomethyl)pyrimidin-4-yl)oxy)-N-(quinolin-2-ylmethyl)benzamide] |
| < 100 | NCc1cc(Oc2cccc(C(=O)NCc3sc4ccccc4c3Cl)c2)ncn1 [Compound 1-64, 3-((6-(Aminomethyl)pyrimidin-4-yl)oxy)-N-((3-chlorobenzo[b]thiophen-2-yl)methyl)benzamide] |
| < 100 | NCc1cc(Oc2cccc(C(=O)NCc3cc4cc(F)ccc4[nH]3)c2)ncn1 [Compound 1-65, 3-((6-(Aminomethyl)pyrimidin-4-yl)oxy)-N-((5-fluoro-1H-indol-2-yl)methyl)benzamide] |
| < 100 | Cn1c(CNC(=O)c2cccc(Oc3cc(CN)ncn3)c2)cc2ccccc21 [Compound 1-66, 3-((6-(Aminomethyl)pyrimidin-4-yl)oxy)-N-((1-methyl-1H-indol-2-yl)methyl)benzamide] |
| < 100 | NCc1cc(Oc2cccc(C(=O)NCc3cc4cccnc4[nH]3)c2)ncn1 [Compound 1-67, N-((1H-Pyrrolo[2,3-b]pyridin-2-yl)methyl)-3-((6-(aminomethyl)pyrimidin-4-yl)oxy)benzamide] |
| < 100 | NCc1cc(Oc2cccc(C(=O)NCc3nc4ccccc4o3)c2)ncn1 [Compound 1-68, 3-((6-(Aminomethyl)pyrimidin-4-yl)oxy)-N-(benzo[d]oxazol-2-ylmethyl)benzamide] |
| < 100 | NCc1cc(Oc2cccc(C(=O)N3CCc4cccnc4C3)c2)ncn1 [Compound 1-69, (3-((6-(Aminomethyl)pyrimidin-4-yl)oxy)phenyl)(5,6-dihydro-1,7-naphthyridin-7(8H)-yl)methanone] |
| < 100 | Cc1n[nH]c2c1CN(C(=O)c1cccc(Oc3cc(CN)ncn3)c1)CC2 [Compound 1-70, (3-((6-(Aminomethyl)pyrimidin-4-yl)oxy)phenyl)(3-methyl-6,7-dihydro-1H-pyrazolo[4,3-c]pyridin-5(4H)-yl)methanone] |
| < 100 | NCc1cc(Oc2cccc(C(=O)N3CCc4c([nH]c5ncccc45)C3)c2)ncn1 [Compound 1-71, (3-((6-(Aminomethyl)pyrimidin-4-yl)oxy)phenyl)(5H-pyrrolo[2,3-b:5,4-c′]dipyridin-7(6H,8H,9H)-yl)methanone] |

The next lines start with the compound.

| Structure (SMILES) | IC50 [nM] |
| --- | --- |
| CC(C)(O)CNC(=O)c1cccc(COc2cc(CN)ncn2)c1 [Compound 1-34, 3-(((6-(Aminomethyl)pyrimidin-4-yl)oxy)methyl)-N-(2-hydroxy-2-methylpropyl)benzamide] | < 100 |
| CS(=O)(=O)CCNC(=O)c1cccc(COc2cc(CN)ncn2)c1 [Compound 1-37, 3-(((6-(Aminomethyl)pyrimidin-4-yl)oxy)methyl)-N-(2-(methylsulfonyl)ethyl)benzamide] | < 100 |
| NCc1cc(OCc2cccc(C(=O)NCCN3CCOC3=O)c2)ncn1 [Compound 1-38, 3-(((6-(Aminomethyl)pyrimidin-4-yl)oxy)methyl)-N-(2-(2-oxooxazolidin-3-yl)ethyl)benzamide] | < 100 |
| NCc1cc(OCc2cccc(C(=O)NCCn3cccn3)c2)ncn1 [Compound 1-39, N-(2-(1H-Pyrazol-1-yl)ethyl)-3-(((6-(aminomethyl)pyrimidin-4-yl)oxy)methyl)benzamide] | < 100 |
| NCc1cc(OCc2cccc(C(=O)Nc3ccccc3)c2)ncn1 [Compound 1-40, 3-(((6-(Aminomethyl)pyrimidin-4-yl)oxy)methyl)-N-phenylbenzamide] | < 100 |
| NCc1cc(OCc2cccc(C(=O)NCc3ccccc3)c2)ncn1 [Compound 1-41, 3-(((6-(Aminomethyl)pyrimidin-4-yl)oxy)methyl)-N-benzylbenzamide] | < 100 |
| NCc1cc(Nc2cccc(C(=O)Nc3ccccc3)c2)ncn1 [Compound 1-42, 3-((6-(Aminomethyl)pyrimidin-4-yl)amino)-N-phenylbenzamide] | < 100 |
| NCc1cc(NCc2cccc(C(=O)Nc3ccccc3)c2)ncn1 [Compound 1-43, 3-(((6-(Aminomethyl)pyrimidin-4-yl)amino)methyl)-N-phenylbenzamide] | < 100 |
| NCc1cc(NCc2cccc(C(=O)Nc3ccc(C(=O)O)cc3)c2)ncn1 [Compound 1-44, 4-(3-(((6-(Aminomethyl)pyrimidin-4-yl)amino)methyl)benzamido)benzoic acid] | 100 to 1000 |
| CN(Cc1cccc(C(=O)Nc2ccccc2)c1)c1cc(CN)ncn1 [Compound 1-45, 3-(((6-(Aminomethyl)pyrimidin-4-yl)(methyl)amino)methyl)-N-phenylbenzamide] | 100 to 1000 |
| NCc1cc(OCc2cccc(C(=O)NCCn3cnnn3)c2)ncn1 [Compound 1-46, N-(2-(1H-Tetrazol-1-yl)ethyl)-3-(((6-(aminomethyl)pyrimidin-4-yl)oxy)methyl)benzamide] | < 100 |
| CS(=O)(=O)CCN1C(=O)CCc2c(Oc3cc(CN)ncn3)cccc21 [Compound 1-47, 5-((6-(Aminomethyl)pyrimidin-4-yl)oxy)-1-(2-(methylsulfonyl)ethyl)-3,4-dihydroquinolin-2(1H)-one] | < 100 |
| NCc1cc(Oc2cccc3c2ccn3CCO)ncn1 [Compound 1-48, 2-(4-((6-(Aminomethyl)pyrimidin-4-yl)oxy)-1H-indol-1-yl)ethan-1-ol] | < 100 |
| NCc1cc(Oc2cccc3c2ccn3C2COC2)ncn1 [Compound 1-49, (6-((1-(Oxetan-3-yl)-1H-indol-4-yl)oxy)pyrimidin-4-yl)methanamine] | 100 to 1000 |
| NCc1cc(Oc2cccc(C(=O)N3CCc4ccc(Cl)cc43)c2)ncn1 [Compound 1-50, (3-((6-(Aminomethyl)pyrimidin-4-yl)oxy)phenyl)(6-chloroindolin-1-yl)methanone] | < 100 |
| NCc1cc(Oc2cccc(C(=O)N3CCc4cccnc43)c2)ncn1 [Compound 1-51, (3-((6-(Aminomethyl)pyrimidin-4-yl)oxy)phenyl)(2,3-dihydro-H-pyrrolo[2,3-b]pyridin-1-yl)methanone, hydrochloride] | < 100 |
| NCc1cc(Oc2cccc(C(=O)N3CCc4ccncc43)c2)ncn1 [Compound 1-52, (3-((6-(Aminomethyl)pyrimidin-4-yl)oxy)phenyl)(2,3-dihydro-H-pyrrolo[2,3-c]pyridin-1-yl)methanone, hydrochloride] | < 100 |
| NCc1cc(Oc2cccc(C(=O)NCc3cc4ccccc4[nH]3)c2)ncn1 [Compound 1-53, N-((1H-Indol-2-yl)methyl)-3-((6-(aminomethyl)pyrimidin-4-yl)oxy)benzamide] | < 100 |
